Series [1] can be described thus: Enzymatic hydrolysis of α-T3 esters in rat plasma. The class given is in vitro ADME. Particulars: pH 7.4, 37 °C, Michaelis–Menten fit.
A short description of series [2]: Effect of eserine (esterase inhibitor) on ester hydrolysis in rat liver microsomes. The class given is in vitro ADME. Particulars: eserine 0–2.0 mmol/L. Here is the method:
The effects of eserine on α-T3DMG hydrolysis in rat liver microsomes were also examined using similar methods, with 50 µL eserine aqueous solution instead of PBS, added to the mixtures with liver microsomes. Eserine was tested at 0–2.0 mmol/L.
(In general: Microsomes from liver hold many membrane-bound enzymes, among them those of drug oxidation.)

Series [3] is described as follows: Stability in water. The class given is physicochemical.
Series [4] is described as follows: Distribution of α-T3DMG to n-octanol and water phases. Particulars: increasing TCA molar ratio. The class given is physicochemical. Here is the method: The fitting curves were obtained by the plateau model using GraphPad Prism to indicate a smoothing curve connecting each point. The prepared solutions described in Section 4.7.1 were combined with the same volume of n-octanol and then vortexed for 2 min. The solutions were then centrifuged at 20,600× g for 20 min. The upper layer (n-octanol) and the lower layer (water) were collected, diluted with ethanol, and subjected to LC-MS/MS, as described in Section 4.7.

Series [5] in a line: Plasma α-T3 pharmacokinetics after gastrostomy administration in bile duct-ligated rats. In kind it is in vivo, rat. The method, then: The SD rats were fasted for 16 h, and they were provided drinking water ad libitum prior to the administration of the test compounds. The rats were administered three types of mixed anesthetic agents (medetomidine, midazolam, and butorphanol) under isoflurane anesthesia. To avoid the influence of intrinsic bile flow on intestinal absorption, a catheter was inserted into the bile ducts of the rats. The catheter was ligated with strings, and intrinsic bile flow was excluded. This animal model was referred to in an animal experimental book in Japanese, titled in English as, “An atlas of experimental animal technology” published in 1998; this method is very similar to that described in Figure 5 of Jaber et al..
Dosing solutions were prepared as follows: (i) 5.88 mmol/L α-T3DMG and 5.88 mmol/L TCA in water (α-T3DMG:TCA = 1:1), (ii) 5.88 mmol/L α-T3DMG and 11.76 mmol/L TCA in water (α-T3DMG:TCA = 1:2), and (iii) 5.88 mmol/L α-T3 and 11.76 mmol/L TCA in water (α-T3:TCA = 1:2). The α-T3 was dispersed in silica powder in ethanol, and the solvent was removed in vacuo prior to dispersion in water. The ligated rats were administered […] of α-T3DMG or α-T3 via gastrostomy. The doses were 12.5 mg/kg of body weight equivalent for α-T3.
Blood samples (200 µL) were collected from the external jugular vein under isoflurane anesthesia using heparinized syringes at 0.5, 1, 2, 3, 4, 6, 8, and 24 h. […]

Series [6] is described as follows: Water solubility. The class given is physicochemical. Particulars: distilled water, 25 ± 1 °C, shaken 3 h. The method, then:
The aqueous solubility of each ester was determined by adding 50 μmol of each compound to 1 mL of distilled water in amber test tubes and incubating the tubes at 25 ± 1 °C in a constant-temperature water bath. The test tubes were shaken for 3 h, and the suspensions were filtered using a membrane filter (MF-Millipore™ Membrane Filter, 0.45 µm pore size, Merck KGaA, Darmstadt, Germany). The filtered media, including α-T3DMG, was assayed using the liquid chromatography (LC)-MS/MS method described in Section 4.8.

A short description of series [7]: Toxicity observation in the in vivo study. Conditions: bile duct-ligated rats, 12.5 mg/kg α-T3 equivalent, gastrostomy.
Series [8] can be described thus: Particle size distribution, z-potential and pH of aqueous solutions of α-T3DMG with or without TCA. In kind it is physicochemical. Here is the method: The fitting curves were obtained by the plateau model using GraphPad Prism to indicate a smoothing curve connecting each point. The z-average with PDI and the z-potential of the aqueous solution of α-[…] with or without TCA, as described in Section 4.7.1, were determined using a Zetasizer Nano ZS (MALVERN, Worcestershire, UK). Measurements were independently performed three times for each sample. The pH of the aqueous solution of α-[…] with or without TCA is described in Section 4.7.1. It was measured using a LAQUAtwin pH-11 pocket water quality meter (HORIBA, Ltd., Kyoto, Japan).

Series [9] can be described thus: Appearance of aqueous solutions of α-T3DMG with or without TCA. In kind it is physicochemical. The method, then: A stock solution of α-T3DMG was prepared in milliQ and combined with different concentrations of taurocholic acid (TCA) aqueous solution to the final molar ratios (α-T3DMG/TCA = 1/0.1–4). The fitting curves were obtained by the plateau model using GraphPad Prism to indicate a smoothing curve connecting each point.

Series [10] in a line: Enzymatic hydrolysis of α-T3 esters in rat liver microsomes. The class given is in vitro ADME. Particulars: rat liver microsome, pH 7.4, 37 °C, Michaelis–Menten fit; for Km: liver microsomes. The method, then:
The hydrolysis of esters was analyzed at 37 °C in phosphate-buffered saline (PBS) containing commercially available rat liver microsomes (In Vitro Technologies, Inc., Baltimore, MD, USA). The microsomes (20 mg/mL) were adjusted to a protein concentration of 0.11 mg/mL and preincubated at 37 °C for 5 min before adding the esters.
Stock solutions of the esters were prepared in a 5% methanol aqueous solution. Enzymatic reactions were initiated by adding 50 µL ester stock solution (final concentration 50–800 μmol/L) and 50 μL PBS to 900 µL preheated reaction medium containing rat liver microsomes in amber test tubes. These reactions were incubated at 37 °C; and, at various times, 100 μL aliquots were removed and mixed with 350 µL ethanol. Samples were then vortexed for 2 min and centrifuged at 1750 g for 5 min. The aliquot was analyzed using the LC-MS/MS system described in Section 4.8. The initial hydrolytic rate (μmol/L α-T3 formed per min) was calculated from the initial slope of the plot of α-T3 concentration versus time.

Where [11] appears, read: 5.88 mmol/L α-T3DMG, TCA molar ratio 0.
Setting [12] is: 5.88 mmol/L α-T3DMG, TCA molar ratio 0.3.
[13] abbreviates: 5.88 mmol/L α-T3DMG, TCA molar ratio 0.9.
Where [14] appears, read: 5.88 mmol/L α-T3DMG, TCA molar ratio 1.
[15] abbreviates: 5.88 mmol/L α-T3DMG, TCA molar ratio 1.5.
[16] abbreviates: 5.88 mmol/L α-T3DMG, TCA molar ratio 3.
Where [17] appears, read: 5.88 mmol/L α-T3DMG, TCA molar ratio 4.
[18] abbreviates: 23.52 mmol/L α-T3DMG, TCA molar ratio 0.
The mark [19] stands for this setting: 23.52 mmol/L α-T3DMG, TCA molar ratio 0.3.
[20] abbreviates: 23.52 mmol/L α-T3DMG, TCA molar ratio 1.5.
The mark [21] stands for this setting: 23.52 mmol/L α-T3DMG, TCA molar ratio 3.
Setting [22] is: 23.52 mmol/L α-T3DMG, TCA molar ratio 4.

The structures appear in SMILES notation. Where a name gives a salt, the structure may show the parent alone.

By Km is commonly meant the substrate concentration at which the rate is half of its maximum. A word on the Vmax: it is the rate approached at saturating substrate. The half-life is the time in which the quantity being followed falls by half. Low readings indicate rapid decline, high ones slow decline. Usually solubility stands for how much of the substance goes into solution per volume. The term melting point denotes the temperature, or range, at which the solid turns liquid.

As to `CC(C)=CCC/C(C)=C/CC/C(C)=C/CC[C@]1(C)CCc2c(C)c(OC(=O)CN(C)C)c(C)c(C)c2O1` [α-T3DMG, 2R-α-Tocotrienyl N,N-dimethylglycinate hydrochloride], the Km in series [1] is 664 µM; in series [10] it was 5720 µM. Besides, the values for the Vmax in series [1] and in series [10] were 8.138e-08 mol/L/min and 0.0001395 mol/L/min, respectively. In series [2], the “hydrolysis in the presence of eserine” value is recorded as “completely inhibited”. In addition, the degradation in water entry in [3] (incubated at 5 and 20 °C for 28 days) is given as “did not exhibit any degradation”. The stability in water entry in series [3] (room temperature (20 °C) for a month) is “stable”. Moreover, in [3] (water, accelerated condition at 40 °C), the half-life is approximately 27 days. In addition, the “α-T3DMG levels in the n-octanol phase” value in [4] was “reached a plateau at approximately equal molar ratios of α-T3DMG and TCA”. The “plasma levels of α-T3DMG (ester form) relative to α-T3” value in [5] (gastrostomy of α-T3DMG with TCA) is listed as 4–10%. Further, the solubility at 3 h in series [6] is more than 50000 µM. The “toxicity or abnormalities in rats and blood samples” value in series [7] is “no toxicity or abnormalities were observed”. For the same molecule, the PDI worked out at 0.542 ± 0.034 in [8] (setting [11]); 0.428 ± 0.014 in series [8] (setting [12]); 0.228 ± 0.039 in series [8] (setting [13]); 0.203 ± 0.064 in series [8] (setting [14]); 0.161 ± 0.045 in series [8] (setting [15]); 0.217 ± 0.009 in series [8] (setting [16]). For the same molecule, the PDI in [8] (setting [17]) was 0.466 ± 0.068; in series [8] (setting [18]), 0.490 ± 0.020; in series [8] (setting [19]), 0.336 ± 0.026; in series [8] (23.52 mmol/L α-T3DMG, TCA molar ratio 0.9, ambiguous data (footnote a)) it was 0.286 ± 0.231 ^a; in [8] (23.52 mmol/L α-T3DMG, TCA molar ratio 1, ambiguous data (footnote a)), 0.250 ± 0.179 ^a; in series [8] (setting [20]), 0.190 ± 0.045. Also, the PDI in series [8] (setting [21]) came out at 0.219 ± 0.051; in series [8] (setting [22]), 0.217 ± 0.005. Moreover, the Z-Average is 282.0 ± 8.9 nm in [8] (setting [11]); 12.6 ± 0.2 nm in series [8] (setting [12]); 3.8 ± 1.1 nm in series [8] (setting [13]); 5.3 ± 3.5 nm in [8] (setting [14]); 3.1 ± 0.0 nm in [8] (setting [15]); 4.3 ± 1.8 nm in series [8] (setting [16]). The Z-Average in series [8] (5.88 mmol/L α-T3DMG, TCA molar ratio 4, ambiguous data (footnote a)) is 163.7 ± 84.5 ^a nm; in series [8] (setting [18]), 307.8 ± 8.6 nm; in series [8] (setting [19]) it was 6.6 ± 0.1 nm; in [8] (23.52 mmol/L α-T3DMG, TCA molar ratio 0.9, ambiguous data due to precipitation (footnote b)) it was 4.2 ± 0.4 ^b nm; in [8] (setting [20]), 9.2 ± 6.1 nm; in series [8] (setting [21]), 22.4 ± 15.1 nm. Moreover, the Z-Average in series [8] (setting [22]) turned out to be 23.7 ± 12.2 nm. For the same molecule, the Z-Potential in series [8] (setting [11]) is on record as 95.4 ± 2.5 mV; in [8] (setting [12]) it was 48.3 ± 7.5 mV; in [8] (setting [13]), 19.1 ± 12.2 mV; in series [8] (setting [14]) it was 8.70 ± 6.17 mV; in series [8] (setting [15]), −4.35 ± 1.99 mV; in [8] (setting [16]), −0.0299 ± 0.260 mV. Further, in series [8] (setting [17]), the Z-Potential is on record as −22.1 ± 3.37 mV. Also, the pH in [8] (setting [11]) came to 3.0; in [8] (setting [12]), 3.2; in series [8] (setting [13]), 3.8; in series [8] (setting [14]) it was 3.8; in series [8] (setting [15]), 4.1; in [8] (setting [16]), 4.6. Moreover, the pH in series [8] (setting [17]) worked out at 4.7; in [8] (setting [18]) it was 2.7; in series [8] (setting [19]) it was 3.5; in series [8] (23.52 mmol/L α-T3DMG, TCA molar ratio 0.9), 3.9; in [8] (23.52 mmol/L α-T3DMG, TCA molar ratio 1), 3.9; in series [8] (setting [20]), 4.4. Besides, the pH in [8] (setting [21]) and in [8] (setting [22]) was 4.8 each time. Moreover, the appearance in water entry in [9] (absence of TCA, all concentrations (2.94–23.52 mmol/L)) was “cloudy”; in series [9] (presence of TCA, except 23.52 mmol/L α-T3DMG at α-T3DMG:TCA 1:0.9 and 1:1), “transparent”. Also, in series [9] (equal molar ratio of TCA versus 23.52 mmol/L α-T3DMG), the “appearance of mixed solution” value is “white precipitation”.
On to `CNCC(=O)Oc1c(C)c(C)c2c(c1C)CC[C@@](C)(CC/C=C(\C)CC/C=C(\C)CCC=C(C)C)O2` [α-T3MG, 2R-α-Tocotrienyl N-methylglycinate], for which the results for the Km in series [1] and in [10] were 1460 µM and 176 µM, respectively. Besides, the maximum rate (Vmax) in series [1] amounted to 5.573e-07 mol/L/min; in [10], 2.051e-06 mol/L/min. In series [2], the “hydrolysis in the presence of eserine” value is on record as “completely inhibited”. Also, in [6], the solubility at 3 h was more than 50000 µM.
Consider `CNCC(=O)Oc1c(C)c(C)c2c(c1C)CC[C@@](C)(CC/C=C(\C)CC/C=C(\C)CCC=C(C)C)O2` (as salt: hydrochloride) [α-T3MG, 2R-α-Tocotrienyl N-methylglycinate], for which the melting point was 170 to 173 °C.
On to `CC(C)=CCC/C(C)=C/CC/C(C)=C/CC[C@]1(C)CCc2c(C)c(O)c(C)c(C)c2O1` [α-T3, 2R-α-Tocotrienol], for which the “plasma α-T3 levels after postprandial (TCA 1:2) administration of α-T3 compared with fasting (TCA 1:1) administration of α-T3DMG” value in series [5] (gastrostomy, Supplementary Figure S2) was “similar”.
In turn, `C[C@H](CCC(=O)NCCS(=O)(=O)O)[C@H]1CC[C@H]2[C@@H]3[C@H](O)C[C@@H]4C[C@H](O)CC[C@]4(C)[C@H]3C[C@H](O)[C@]12C` [TCA, taurocholic acid, reference compound] showed a z-potential in [8] (TCA without α-T3DMG in water, 23.52 mmol/L) of −38.9 ± 1.9 mV.
`CC(C)=CCC/C(C)=C/CC/C(C)=C/CC[C@]1(C)CCc2c(C)c(OC(=O)CCC(=O)O)c(C)c(C)c2O1` [α-T3Suc, 2R-α-Tocotrienyl acid succinate]: the Km came out at 1290 µM in [1] and 61.6 µM in [10]. In addition, the Vmax was 1.033e-07 mol/L/min in [1] and 7.426e-08 mol/L/min in [10].
